# Data: paper PMC8698672, “Selective Anticancer and Antimicrobial Metallodrugs Based on Gold(III) Dithiocarbamate Complexes” (Biomedicines, 2021)
# Legend:
# [1] = tested on: Acinetobacter baumannii (Ab); test: Antibacterial MIC assay (CO-ADD); type: cell-based; conditions: 18 h, 37 °C, inhibition ≥ 80%
# Procedure: (§1) The antimicrobial assays were performed according to the protocols of the Community for Open Antimicrobial Drug Discovery (CO-ADD). […] All the sample preparation was done using liquid-handling robots.
# (§2) The antibacterial activity of all synthesized complexes was evaluated in five different pathogenic bacteria, including methicillin-resistant Staphylococcus aureus (Sa), Escherichia coli (Ec), Klebsiella pneumonia (Kp), Psedomonas aeruginosa (Pa), and Acinetobacter baumannii (Ab). All bacteria were cultured in cation-adjusted Mueller Hinton Broth (CAMHB) at 37 °C overnight. A sample of each culture was then diluted 40-fold in fresh broth and incubated at 37 °C for 1.5–3 h. The resultant mid-log phase cultures were diluted (CFU/mL measured by OD600), then added to each well of the complexes containing plates, giving a cell density of 5 × 10^5 CFU/mL and a total volume of 50 μL. All the plates were covered and incubated at 37 °C for 18 h without shaking. The inhibition of bacterial growth was determined by measuring the absorbance at 600 nm (OD600) using a Tecan M1000 Pro monochromator plate reader (Männedorf, Switzerland). The percentage of growth inhibition was calculated for each well, using the negative control (media only) and positive control (bacteria without inhibitors) on the same plate as references. […]
# [2] = tested on: Psedomonas aeruginosa (Pa); test: Antibacterial MIC assay (CO-ADD); type: cell-based; conditions: 18 h, 37 °C, inhibition ≥ 80%
# Procedure: as §1, §2
# [3] = tested on: Escherichia coli (Ec); test: Antibacterial MIC assay (CO-ADD); type: cell-based; conditions: 18 h, 37 °C, inhibition ≥ 80%
# Procedure: as §1, §2
# [4] = tested on: methicillin-resistant Staphylococcus aureus (Sa); type: cell-based; conditions: 18 h, 37 °C, inhibition ≥ 80%
# Procedure: The antimicrobial assays were performed according to the protocols of the Community for Open Antimicrobial Drug Discovery (CO-ADD). C1–6 were prepared in DMSO and water to a final testing concentration of 32 μg/mL and serially diluted 1:2-fold 8 times. Each sample concentration was prepared in 384-well plates, non-binding surface plate (NBS; Corning 3640) for each bacterial/fungal strain, all in duplicate (n = 2), and keeping the final DMSO concentration to a maximum of 0.5%. All the sample preparation was done using liquid-handling robots.
# as §2
# [5] = tested on: Caco-2/TC7 normal cells; test: MTT cell viability, normal (differentiated) Caco-2/TC7 cells (15 days after seeding); type: cell-based, human; conditions: Caco-2/TC7, 15 days after seeding, 72 h incubation
# Procedure: (§3) This study was conducted in the human enterocyte-like cell line Caco-2/TC7 [44]. This cell line undergoes a process of spontaneous differentiation in culture that leads to the formation of a monolayer of cells, expressing the morphological and functional characteristics of the mature enterocytes. This differentiation process is growth-dependent, where the cells undergo differentiation from “undifferentiated proliferative crypt-type cells” in the exponential phase of growth, to “differentiated enterocyte-type cells” in the stationary phase. The cell culture of Caco-2/TC7 cells (passages 30–50) was performed according to a previously reported method.
# (§4) Cell survival was measured using the MTT test. The assay depends on the cellular reduction of 3-(4,5-dimethylthiazol-2-yl)-2,5-diphenyltetrazolium bromide (MTT, Sigma-Aldrich, Madrid, Spain) by the mitochondrial dehydrogenase of viable cells to a blue formazan product that can be measured spectrophotometrically, as previously described.
# (§5) The in vitro cytotoxic effect was evaluated on human colon cancer cell line Caco-2/TC7. This particular cell line presents a huge advantage for toxicity studies because of its spontaneous enterocytic-like differentiation when confluence is reached. Therefore, Caco-2 cells become polarized cells expressing apical and basolateral surfaces with well-established tight junctions. Thus, cells present noncarcinogenic behavior in the confluence and the cytotoxic effect of our complexes can be performed on differentiated cells to evaluate the selectivity toward tumor cells. For the antiproliferative studies, MTT assay was performed after 72 h of exposure to different concentrations of the complexes at two different stages of confluence, five days to evaluate the effect on tumor cells (Figure S7) and 15 days for normal cells (Figure S8).
# [6] = n-octanol/water partition coefficient, shake-flask method; type: physicochemical; conditions: n-octanol / buffered saline pH 7.4, shake-flask
# Procedure: The n-octanol/water coefficient of the complexes was determined using the shake-flask method previously described. Buffered-saline distilled water (100 mL, phosphate buffer PO4^3− = 10 mM, (NaCl = 0.15 M, pH 7.4) and n-octanol (100 mL) were shaken together for 72 h to allow the saturation of both phases. Approximately 1 mg of the complexes was dissolved in 5 mL of the aqueous phase, and 5 mL of the organic phase was added, mixing for 10 min. The resulting emulsion was centrifuged to separate the phases. The concentration of the compounds in each phase was determined using UV−Vis absorbance spectroscopy. Log P7.4 was calculated as log (Absorganic/Absaqueous).
# Biodistribution studies should be conducted to evaluate whether our complexes could reach their pharmacological target. The potential biodistribution of our complexes was evaluated by the measure of the partition coefficient. This parameter indicates how balanced the lipo- and hydrophilicity of the compounds are. Good equilibrium between these two properties is crucial for proper distribution inside the organism. The bloodstream is aqueous in nature, so hydrophilicity is needed for drug delivery, but too-high hydrophilicity can hinder the penetration of biological membranes. Of course, high lipophilicity behavior can hinder biomedical applications related to a good distribution profile. The chosen method to measure the partition coefficient (Log Pow) was the shake-flask technique, with ideal values in the range of −1 ≤ Log P ow ≤ 3. However, for a greater oral and intestinal absorption, a more restricted range has values around 1.35–1.80 [57]. Table 2 collects all of the obtained Log Pow values, and it can be seen that, although only complex [Au(ppy)(dedtc)]PF6 (C4) satisfied this restricted range, all of them presented acceptable values of Log Pow.
# [7] = tested on: Caco-2/TC7 tumor cells; test: MTT cell viability, tumor Caco-2/TC7 cells (5 days after seeding); type: cell-based, human; conditions: for IC50: Caco-2/TC7, 5 days after seeding, 72 h incubation, MTT; for Tumor Cells Selectivity over Normal Cells: ratio of IC50 normal / tumor Caco-2/TC7 cells
# Procedure: as §3, §4, §5
# [8] = tested on: Candida albicans (Ca); test: Antifungal MIC assay (CO-ADD); type: cell-based; conditions: 36 h, 35 °C, inhibition ≥ 80%
# Procedure: as §1
# The antifungal activity of all synthesized complexes was evaluated in two different fungi, Candida albicans (Ca) and Cryptococcus neoformans (Cn). Fungi strains were cultured for 3 days on yeast extract–peptone–dextrose (YPD) agar at 30 °C. A yeast suspension of 1 × 10^6 to 5 × 10^6 CFU/mL (as determined by OD530) was prepared from five colonies. The suspension was subsequently diluted and added to each well of the complex-containing plates, giving a final cell density of fungus suspension of 2.5 × 10^3 CFU/mL and a total volume of 50 μL. All plates were covered and incubated at 35 °C for 36 h without shaking. […] The absorbance was measured using a Biotek Multiflo Synergy HTX plate reader (Winooski, VT, USA). In both cases, the percentage of growth inhibition was calculated for each well, using the negative control (media only) and positive control (fungi without inhibitors) on the same plate. […] Due to a higher variance in growth and inhibition, a lower threshold was applied to the data for C. neoformans.
Compound,MIC Ab [1],MIC Pa [2],MIC Ec [3],MIC Sa [4],IC50 [5],Log Pow [6],IC50 [7],Tumor Cells Selectivity over Normal Cells [7],MIC Ca [8]
"Cc1ccc(-c2ccccn2)[c]([Au+][S]C(=S)N(C)C)c1.F[P-](F)(F)(F)(F)F [Complex C1, [Au(tpy)(dmdtc)] PF6]",>32 µg/mL,>32 µg/mL,32 µg/mL,≤0.25 µg/mL,23.03 ± 0.06 µM,0.61,5.11 ± 0.12 µM,4.5-fold,>32 µg/mL
"CN(C)C(=S)[S][Au+][c]1ccccc1-c1ccccn1.F[P-](F)(F)(F)(F)F [Complex C2, [Au(ppy)(dmdtc)]PF6]",32 µg/mL,>32 µg/mL,32 µg/mL,≤0.25 µg/mL,15.69 ± 0.06 µM,1.11,1.79 ± 0.12 µM,8.8-fold,32 µg/mL
"CCN(CC)C(=S)[S][Au+][c]1cc(C)ccc1-c1ccccn1.F[P-](F)(F)(F)(F)F [Complex C3, [Au(tpy)(dedtc)]PF6]",>32 µg/mL,>32 µg/mL,32 µg/mL,≤0.25 µg/mL,12.95 ± 0.11 µM,1.17,1.85 ± 0.36 µM,7.0-fold,>32 µg/mL
"Cc1ccc2[c](c1)[Au-]1([S]C(N(Cc3ccccc3)Cc3ccccc3)=[S+]1)[n+]1ccccc1-2.F[P-](F)(F)(F)(F)F (centres unmarked) [Complex C5, [Au(tpy)(dbdtc)]PF6]",>32 µg/mL,>32 µg/mL,>32 µg/mL,32 µg/mL,> 100 µM,0.89,2.07 ± 0.11 µM,,32 µg/mL
"F[P-](F)(F)(F)(F)F.S=C([S][Au+][c]1ccccc1-c1ccccn1)N(Cc1ccccc1)Cc1ccccc1 [Complex C6, [Au(ppy)(dbdtc)]PF6]",32 µg/mL,>32 µg/mL,>32 µg/mL,4 µg/mL,24.7 ± 0.36 µM,1.00,4.02 ± 0.3 µM,6.2-fold,4 µg/mL
[Au(ppy)(dedtc)]PF6 [Complex C4],>32 µg/mL,>32 µg/mL,32 µg/mL,≤0.25 µg/mL,16.79 ± 0.13 µM,1.57,2.47 ± 0.25 µM,6.8-fold,32 µg/mL
